Results on four compounds are retold here after patent US11981669B2, “1,7-naphthyridine derivative and preparation method and use therefor” (CSPC ZHONGQI PHARMACEUTICAL TECHNOLOGY (SHIJIAZHUANG) CO., …, priority 2018, dated 2024).

The target in one data set is PHD1 (Homo sapiens (Human), UniProt Q96KS0). Kind of data set: PHD enzyme assay (Eu-VBC TR-fluorescence). It counts as biochemical. As for the experimental part: (§1) VHL/elongin B/elongin C were constructed, expressed and purified, and VHL was labeled. PHD1, PHD2 and PHD3 were constructed, expressed and purified. VBC protein was labeled with DELFIA Eu-Labeling Kit. A NeutrAvidin 96-well plate was blocked after the addition of 200 μL Blocker Casein to each well, followed by incubation for 30 min. Each well was washed 3 times by adding 200 μL of washing buffer each time. A 200 nM HIF-1a 556-574 solution was prepared with washing buffer, and 100 μL of the solution was added to each well, followed by incubation for 60 min. Each well was washed 3 times by adding 200 μL of washing buffer each time. A 1 mM Biotin solution was prepared with Blocker Casein, and 100 μL of the solution was added to each well, followed by incubation for 30 min. Each well was washed 3 times by adding 200 μL of washing buffer each time. A 20× compound solution was prepared with PHD reaction buffer, with the final concentration of DMSO being 1%. PHD solutions were prepared with PHD reaction buffer, and the concentrations of PHD1, 2, and 3 solutions were 10 ng/μL, 5 ng/μL, and 15 ng/μL, respectively. 95 μL of the PHD solution was added to each compound well, followed by the addition of 5 μL of the compound solution, 95 μL of the PHD solution was added to each full active well, followed by the addition of 5 μL of the PHD reaction buffer; and 100 μL of the PHD reaction buffer was added to each blank well. After mixing homogeneously, the wells were incubated for 60 min. Each well was washed 3 times by adding 200 μL of washing buffer each time A 1 ng/μL Eu-VBC solution was prepared with Eu-VBC binding buffer, and 100 μL of the solution was added to each well, followed by incubation for 60 min. Each well was washed 6 times by adding 200 μL DELFIA Wash Concentrate each time. 100 μL DELFIA Enhancement Solution was added to each well. A microplate reader was used to read TR-Fluorescence at Ex340 and Em615. The flurescence of the sample wells was recorded as FLUsample, the flurescence of the full active wells was recorded as FLU100%, and the flurescence of the blank well was recorded as FLU0%.
Chain of PHD1 (Q96KS0 whole entry): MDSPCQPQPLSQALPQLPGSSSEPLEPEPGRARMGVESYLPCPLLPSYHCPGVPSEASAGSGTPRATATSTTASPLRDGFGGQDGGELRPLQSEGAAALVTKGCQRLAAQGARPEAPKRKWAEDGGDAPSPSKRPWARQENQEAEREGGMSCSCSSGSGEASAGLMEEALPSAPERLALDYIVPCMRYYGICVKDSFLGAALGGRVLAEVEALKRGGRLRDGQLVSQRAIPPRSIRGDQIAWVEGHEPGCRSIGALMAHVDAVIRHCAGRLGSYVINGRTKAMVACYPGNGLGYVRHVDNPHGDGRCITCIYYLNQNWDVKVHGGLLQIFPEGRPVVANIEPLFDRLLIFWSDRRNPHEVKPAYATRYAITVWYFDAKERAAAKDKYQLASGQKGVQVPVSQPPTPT

Another data set concerns the target PHD3 (Homo sapiens (Human), UniProt Q9H6Z9). The data set can be described thus: PHD enzyme assay (Eu-VBC TR-fluorescence). It counts as biochemical. As for the experimental part:
as §1

For the next data set, the target named is CYP1A2 (Homo sapiens (Human), UniProt P05177). It counts as in vitro ADME. The source says:
(§2) The compounds of the present disclosure were subjected to the CYP450 enzyme inhibition assay.

The subject of another data set is reticulocytes. The data set can be described thus: Effect on reticulocytes of normal mice. It counts as in vivo, Balb/c mice. Also on record: Reticulocytes (RETIC), average: unit not given here. Conditions: 10 mg/kg p.o., once; 72 h after administration. As for the experimental part:
72 Balb/c mice, male, were divided into 12 groups, 6 mice in each treatment group. In the positive drug control groups: the mice in the FG-4592 treatment groups were orally administered once, at two doses of 10 mg/kg and 50 mg/kg, and the mice in the rhEPO treatment group was intraperitoneaily injected once, at a dose of 100 IU/kg. The compounds of the present disclosure were all orally administered once at a dose of 10 mg/kg. 72 h after the administration, blood was collected from the orbit of all animals, and subjected to EDTA-K2 anticoagulation. Then reticulocytes (RETIC) were counted with an automatic blood cell analyzer.

The next data set relates to HIF-1α. Kind of data set: Expression of HIF-1α protein in Hep3B cells (western blot, grayscale analysis). Conditions: for fold induction at 30 µM: Homo sapiens, 2 h, compound at 30 μM, 10 μM and 3 μM, read-out: HIF-1α level of the compound of the present disclosure/HIF-1α level of blank control. In kind it is cell-based, Human. Here is the method: (§3) A test compound was dissolved in dimethyl sulfoxide into a 100 mM stock solution, and then was diluted with 0.5% FBS-containing DMEM medium into 30 μM, 10 μM and 3 μM for later use. Human liver cancer cells Hep3B were seeded in a six-well plate at a density of 2.25*10^5 cells/well, 2 mL per well. After cultivation overnight, the cells were treated with compounds at different concentrations for 2 h. The proteins were extracted for western blot and further grayscale analysis.

A further data set concerns the target CYP2D6 (Homo sapiens (Human), UniProt P10635). The data set can be described thus: CYP enzyme inhibition assay. It counts as in vitro ADME.
Excerpt: as §2

In the next data set the target is CYP2C19 (Homo sapiens (Human), UniProt P33261). Kind of data set: CYP enzyme inhibition assay. It counts as in vitro ADME.
Chain of CYP2C19 (P33261 whole entry): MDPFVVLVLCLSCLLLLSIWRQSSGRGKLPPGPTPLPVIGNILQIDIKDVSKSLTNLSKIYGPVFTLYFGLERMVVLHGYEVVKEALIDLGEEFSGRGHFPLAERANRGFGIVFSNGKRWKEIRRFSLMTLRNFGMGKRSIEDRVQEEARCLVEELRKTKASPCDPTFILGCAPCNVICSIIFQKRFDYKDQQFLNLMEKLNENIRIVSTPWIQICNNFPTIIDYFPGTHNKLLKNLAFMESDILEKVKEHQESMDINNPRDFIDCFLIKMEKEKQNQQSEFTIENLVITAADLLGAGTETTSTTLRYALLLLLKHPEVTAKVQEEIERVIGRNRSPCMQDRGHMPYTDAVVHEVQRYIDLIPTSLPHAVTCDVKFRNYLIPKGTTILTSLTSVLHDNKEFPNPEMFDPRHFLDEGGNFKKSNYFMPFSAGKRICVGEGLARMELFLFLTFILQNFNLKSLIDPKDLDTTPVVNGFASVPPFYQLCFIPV
Excerpt: as §2

The target of the next data set is CYP2C9 (Homo sapiens (Human), UniProt P11712). The data set can be described thus: CYP enzyme inhibition assay. In kind it is in vitro ADME.
Chain of CYP2C9 (P11712 whole entry): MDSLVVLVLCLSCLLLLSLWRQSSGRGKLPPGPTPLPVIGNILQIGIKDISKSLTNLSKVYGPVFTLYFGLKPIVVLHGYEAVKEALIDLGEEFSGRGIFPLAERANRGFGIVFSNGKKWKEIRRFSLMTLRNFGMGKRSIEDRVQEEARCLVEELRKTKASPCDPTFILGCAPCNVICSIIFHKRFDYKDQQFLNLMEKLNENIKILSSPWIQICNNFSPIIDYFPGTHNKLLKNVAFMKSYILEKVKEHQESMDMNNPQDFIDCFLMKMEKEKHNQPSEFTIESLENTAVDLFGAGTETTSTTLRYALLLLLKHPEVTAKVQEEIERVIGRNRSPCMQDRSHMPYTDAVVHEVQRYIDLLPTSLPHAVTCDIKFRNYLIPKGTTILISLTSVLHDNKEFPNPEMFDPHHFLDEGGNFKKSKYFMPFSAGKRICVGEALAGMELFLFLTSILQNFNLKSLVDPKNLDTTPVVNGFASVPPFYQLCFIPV
Excerpt: as §2

The next data set concerns the target CYP3A4-M (Homo sapiens (Human), UniProt P08684). The data set can be described thus: CYP enzyme inhibition assay. It counts as in vitro ADME.
Excerpt: as §2

In another data set the target is hERG channels (Homo sapiens (Human), UniProt Q12809). The data set can be described thus: cell-based. In kind it is cell-based. The settings on record: for Inhibitory effect on hERG current at the highest test concentration: human, 30 μM. Here is the method:
Whole-cell patch clamp technique was used to record hERG current. A cell suspension was added to a 35 mm Petri dish, and the dish was then placed on an inverted microscope stage. After the adherence of cells, they were perfused with extracellular fluid at a flow rate of 1-2 mL/min. A glass microelectrode was drawn by a microelectrode puller in two steps, and the pipette tip resistance was between 2-5 MΩ. After establishing the whole cell recording, the clamp potential was held at −80 mV, followed by depolarization to +60 mV when given voltage stimulation and then repolarization to −50 mV to elicit hERG tail current. All recordings were performed after the current was stable. Extracellular perfusion administration started from a low concentration, staying for 5-10 min at each concentration until the current was stable, and then cells were further perfused with the next concentration.
(Block of hERG is tested as a sign of cardiac risk.)

The test system of a further data set is erythropoietin. The data set can be described thus: Expression of erythropoietin in vivo (plasma EPO ELISA after single oral dose).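 As to all read-outs here: male C57 mice given compound by mouth, five animals per treatment group, with EPO in plasma measured by ELISA.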 Conditions: once; for EPO OD value: plasma 6 hours after administration. For orientation: An ELISA detects its analyte on a solid surface through an enzyme-linked reagent.
For another data set, the system named is HIF-2α. Kind of data set: Expression of HIF-2α protein in Hep3B cells (western blot, grayscale analysis). The settings on record: for fold induction at 30 µM: Homo sapiens, 2 h, compound at 30 μM, 10 μM and 3 μM, read-out: HIF-2α level of the compound of the present disclosure/HIF-2α level of blank control. It counts as cell-based, Human. As for the experimental part: as §3
(In general: A western blot detects proteins with antibodies after separation by electrophoresis.)

Chain of hERG channels (Q12809 whole entry, the tested form may be a part): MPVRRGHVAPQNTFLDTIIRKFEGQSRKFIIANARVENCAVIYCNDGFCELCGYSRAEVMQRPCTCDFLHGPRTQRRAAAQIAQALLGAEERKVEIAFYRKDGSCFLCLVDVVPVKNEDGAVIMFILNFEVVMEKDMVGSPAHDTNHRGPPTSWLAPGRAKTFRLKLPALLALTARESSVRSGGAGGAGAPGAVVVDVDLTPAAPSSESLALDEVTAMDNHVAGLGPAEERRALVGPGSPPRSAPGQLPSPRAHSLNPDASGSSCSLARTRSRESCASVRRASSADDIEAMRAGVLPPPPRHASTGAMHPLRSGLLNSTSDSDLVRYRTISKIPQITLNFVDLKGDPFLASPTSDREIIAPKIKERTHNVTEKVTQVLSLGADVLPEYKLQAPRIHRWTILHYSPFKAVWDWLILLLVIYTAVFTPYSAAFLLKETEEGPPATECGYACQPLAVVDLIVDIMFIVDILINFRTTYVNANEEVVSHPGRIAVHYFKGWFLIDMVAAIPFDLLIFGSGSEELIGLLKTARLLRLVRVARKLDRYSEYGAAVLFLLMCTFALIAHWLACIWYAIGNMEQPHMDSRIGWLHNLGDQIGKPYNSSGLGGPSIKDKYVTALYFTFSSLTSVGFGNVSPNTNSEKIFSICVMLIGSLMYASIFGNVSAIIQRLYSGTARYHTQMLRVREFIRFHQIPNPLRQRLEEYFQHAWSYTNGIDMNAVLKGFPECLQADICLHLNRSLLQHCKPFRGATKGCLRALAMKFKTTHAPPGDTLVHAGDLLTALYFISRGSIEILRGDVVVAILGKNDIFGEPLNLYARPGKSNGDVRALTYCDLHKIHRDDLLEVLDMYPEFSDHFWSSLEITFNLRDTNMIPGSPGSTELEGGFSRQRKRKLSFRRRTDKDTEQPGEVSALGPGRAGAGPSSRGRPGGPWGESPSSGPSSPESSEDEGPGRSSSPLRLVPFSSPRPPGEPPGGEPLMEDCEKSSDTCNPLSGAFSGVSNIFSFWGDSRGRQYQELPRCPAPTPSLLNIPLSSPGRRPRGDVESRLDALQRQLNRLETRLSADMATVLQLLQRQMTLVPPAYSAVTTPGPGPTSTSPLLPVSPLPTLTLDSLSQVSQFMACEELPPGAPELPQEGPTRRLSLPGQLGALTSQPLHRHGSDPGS
Chain of CYP3A4-M (P08684 whole entry): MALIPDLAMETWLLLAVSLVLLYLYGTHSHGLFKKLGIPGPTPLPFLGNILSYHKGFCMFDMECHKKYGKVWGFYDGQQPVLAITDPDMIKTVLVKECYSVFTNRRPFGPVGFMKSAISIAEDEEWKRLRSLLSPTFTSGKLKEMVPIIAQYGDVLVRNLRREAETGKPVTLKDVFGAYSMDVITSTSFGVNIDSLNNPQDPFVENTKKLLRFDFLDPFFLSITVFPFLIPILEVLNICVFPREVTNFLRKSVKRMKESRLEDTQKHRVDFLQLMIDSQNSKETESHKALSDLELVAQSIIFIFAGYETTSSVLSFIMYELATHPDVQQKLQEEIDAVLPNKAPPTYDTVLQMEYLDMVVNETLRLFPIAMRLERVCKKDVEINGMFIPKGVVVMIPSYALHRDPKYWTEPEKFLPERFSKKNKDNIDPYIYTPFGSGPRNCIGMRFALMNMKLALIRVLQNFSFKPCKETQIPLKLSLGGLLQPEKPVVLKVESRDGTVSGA
Chain of CYP2D6 (P10635 whole entry): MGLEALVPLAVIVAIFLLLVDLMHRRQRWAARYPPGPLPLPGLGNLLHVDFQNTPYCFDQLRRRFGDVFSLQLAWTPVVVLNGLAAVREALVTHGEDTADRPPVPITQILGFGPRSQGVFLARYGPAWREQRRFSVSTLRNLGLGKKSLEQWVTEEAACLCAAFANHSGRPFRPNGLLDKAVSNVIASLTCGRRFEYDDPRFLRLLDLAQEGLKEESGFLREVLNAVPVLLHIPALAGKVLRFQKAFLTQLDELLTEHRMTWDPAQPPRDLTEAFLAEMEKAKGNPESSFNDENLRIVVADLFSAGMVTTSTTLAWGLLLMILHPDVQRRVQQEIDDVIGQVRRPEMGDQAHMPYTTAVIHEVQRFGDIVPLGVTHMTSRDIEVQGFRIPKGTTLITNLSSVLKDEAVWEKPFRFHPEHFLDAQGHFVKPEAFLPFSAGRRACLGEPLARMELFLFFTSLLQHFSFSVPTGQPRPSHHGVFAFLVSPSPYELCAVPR
Chain of CYP1A2 (P05177 whole entry): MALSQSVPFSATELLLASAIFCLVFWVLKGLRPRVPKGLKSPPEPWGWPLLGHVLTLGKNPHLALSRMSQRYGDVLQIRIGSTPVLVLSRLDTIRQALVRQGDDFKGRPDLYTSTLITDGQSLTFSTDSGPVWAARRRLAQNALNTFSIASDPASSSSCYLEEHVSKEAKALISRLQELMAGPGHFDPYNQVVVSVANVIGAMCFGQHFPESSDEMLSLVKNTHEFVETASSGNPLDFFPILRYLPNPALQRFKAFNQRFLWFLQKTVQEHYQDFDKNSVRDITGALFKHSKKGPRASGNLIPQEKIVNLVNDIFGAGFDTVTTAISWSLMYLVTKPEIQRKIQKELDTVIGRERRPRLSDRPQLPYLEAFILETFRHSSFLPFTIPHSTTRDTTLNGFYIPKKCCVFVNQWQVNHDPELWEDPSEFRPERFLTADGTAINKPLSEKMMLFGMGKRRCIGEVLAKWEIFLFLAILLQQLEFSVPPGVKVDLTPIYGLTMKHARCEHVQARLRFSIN
Chain of PHD3 (Q9H6Z9 whole entry): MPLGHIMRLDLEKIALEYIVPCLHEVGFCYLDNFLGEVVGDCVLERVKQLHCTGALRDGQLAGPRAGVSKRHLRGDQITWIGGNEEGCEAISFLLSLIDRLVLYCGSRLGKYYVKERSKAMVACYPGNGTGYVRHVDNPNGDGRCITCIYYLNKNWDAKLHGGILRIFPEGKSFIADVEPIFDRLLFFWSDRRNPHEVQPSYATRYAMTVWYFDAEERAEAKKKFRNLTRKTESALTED
Protocol for erythropoietin: (2) 30 c57 mice, male, were divided into 6 groups, 5 mice in each treatment group. […] 6 hours after the administration, blood was taken, and plasma was collected for EPO detection with an ELISA kit (R&D Co.).

As to `O=C(O)CNC(=O)c1nc(Cl)c2cc(Oc3ccccc3)ccc2c1O` [Comparative Example 1, reference compound], the 50% inhibitory concentration (IC50) (commonly the concentration at which inhibition is half-maximal) on PHD1 turned out to be 273 nM; against PHD3, 561 nM.

`O=C(O)CNC(=O)c1nc(Br)c2nc(Oc3ccccc3Cl)ccc2c1O` [Link-125, 2-(2-(2-chlorophenoxy)-5-hydroxy-8-bromo-1,7-naphthyridine-6-formamido) Acetic Acid]: the IC50 on CYP1A2 is more than 50 µM; against CYP2D6, more than 50 µM; at CYP2C19 it was more than 50 µM; against CYP2C9, more than 50 µM; against CYP3A4-M, more than 50 µM; at hERG channels it was more than 30 µM. Moreover, in the data set on reticulocytes, the “Reticulocytes (RETIC), average” value is given as 5.62. For the same compound, the “HIF-1α protein expression compared with blank control” value with HIF-1α is on record as “higher than that of the blank control”. In addition, the fold induction at 30 µM in the data set with HIF-1α was in the range of 4.5 to 8.5; in the data set with HIF-2α, 1 to 4.5. At hERG channels, the “Inhibitory effect on hERG current at the highest test concentration” value is reported as “far from the IC50 value”. The “EPO OD value” with erythropoietin (10 mg/kg) is on record as “A (A represents 1.0<EPO OD value<1.5)”; with erythropoietin (50 mg/kg), “D (D represents EPO OD value>3)”. Further, the “HIF-2α protein expression compared with blank control” value in the data set on HIF-2α was “higher than that of the blank control”.

For `O=C(O)CNC(=O)c1ncc2nc(Oc3ccccc3)ccc2c1O` [Comparative Example 2, 2-(5-hydroxy-2-phenoxy-1,7-naphthyridine-6-formamido) acetic acid, reference compound], the IC50 on PHD1 is 335 nM; against PHD3 it was 492 nM.

`O=C(O)CNC(=O)c1nc(Br)c2nc(Oc3ccc(Cl)cc3)ccc2c1O` [Link-129, 2-(2-(4-chlorophenoxy)-5-hydroxy-8-bromo-1,7-naphthyridine-6-formamido) Acetic Acid]: the half-inhibitory concentration (IC50) at CYP1A2 was more than 50 µM; on CYP2D6 it was more than 50 µM; at CYP2C19, more than 50 µM; at CYP2C9, more than 50 µM; on CYP3A4-M it was more than 50 µM; against hERG channels it was more than 30 µM. Further, the “Reticulocytes (RETIC), average” value with reticulocytes was 7.30. Also, the “HIF-1α protein expression compared with blank control” value in the data set on HIF-1α was “higher than that of the blank control”. Further, the fold induction at 30 µM with HIF-1α and with HIF-2α was 1 to 4.5 throughout. Besides, at hERG channels, the “Inhibitory effect on hERG current at the highest test concentration” value is on record as “far from the IC50 value”. Besides, the “EPO OD value” with erythropoietin (10 mg/kg) and in the data set with erythropoietin (50 mg/kg) was “D (D represents EPO OD value>3)” in each case. Further, in the data set on erythropoietin (at 10 mg/kg), the “Promotion of expression of erythropoietin in vivo” value was “significantly promote the expression of erythropoietin”. Further, the “HIF-2α protein expression compared with blank control” value with HIF-2α is “higher than that of the blank control”.
